Results taken from US20230072683A1, “PYRIDO-PYRIMIDIN DERIVATIVES AND PHARMACEUTICAL COMPOSITION, FOR USE IN PREVENTING OR TREATING PI3 KINASE RELATED DISEASES, COMPRISING SAME AS ACTIVE INGREDIENT” (BORYUNG PHARMACEUTICAL CO., LTD, priority 2019, published 2023).

Assays:
[1] = biological target: PI3K-δ (PI3K(p1108/p857) (h)) (Homo sapiens, UniProt O00329); experiment: Evaluation of inhibitory activity against PI3K-δ (HTRF kinase assay); type: biochemical; conditions: compound at 0.1 μM; read-out: EXP_VALUE(% Inhibition) PI3K-δ 0.1 μM
Summary of the method: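 HTRF read-out (665/620 nm ratio ×10000) used Eu-labelled anti-GST, GST-tagged GRP1 PH domain and streptavidin-allophycocyanin after EDTA/PIP3 stop.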

DNA-PK(h) = DNA-PK(h) (Homo sapiens, UniProt P78527); experiment: Evaluation of inhibitory activity against DNA-PK (HTRF kinase assay, GST-cMyc-p53 substrate); type: biochemical; conditions: compound at 0.1 μM; read-out: EXP_VALUE(% Inhibition) DNA-PK(h) 0.1 μM
Summary of the method: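 Human DNA-PK with 50 μM GST-cMyc-p53 substrate; reaction started with Mg/ATP, run 30 min at room temperature, stopped with EDTA. Phospho-Ser15 p53 detected by HTRF (Eu anti-phospho-Ser15, d2 anti-GST), signal = 10000×(Em 665/Em 620).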

PI3K-δ (PI3K(p1108/p857) (h)), sequence (O00329 whole entry, the tested form may be a part): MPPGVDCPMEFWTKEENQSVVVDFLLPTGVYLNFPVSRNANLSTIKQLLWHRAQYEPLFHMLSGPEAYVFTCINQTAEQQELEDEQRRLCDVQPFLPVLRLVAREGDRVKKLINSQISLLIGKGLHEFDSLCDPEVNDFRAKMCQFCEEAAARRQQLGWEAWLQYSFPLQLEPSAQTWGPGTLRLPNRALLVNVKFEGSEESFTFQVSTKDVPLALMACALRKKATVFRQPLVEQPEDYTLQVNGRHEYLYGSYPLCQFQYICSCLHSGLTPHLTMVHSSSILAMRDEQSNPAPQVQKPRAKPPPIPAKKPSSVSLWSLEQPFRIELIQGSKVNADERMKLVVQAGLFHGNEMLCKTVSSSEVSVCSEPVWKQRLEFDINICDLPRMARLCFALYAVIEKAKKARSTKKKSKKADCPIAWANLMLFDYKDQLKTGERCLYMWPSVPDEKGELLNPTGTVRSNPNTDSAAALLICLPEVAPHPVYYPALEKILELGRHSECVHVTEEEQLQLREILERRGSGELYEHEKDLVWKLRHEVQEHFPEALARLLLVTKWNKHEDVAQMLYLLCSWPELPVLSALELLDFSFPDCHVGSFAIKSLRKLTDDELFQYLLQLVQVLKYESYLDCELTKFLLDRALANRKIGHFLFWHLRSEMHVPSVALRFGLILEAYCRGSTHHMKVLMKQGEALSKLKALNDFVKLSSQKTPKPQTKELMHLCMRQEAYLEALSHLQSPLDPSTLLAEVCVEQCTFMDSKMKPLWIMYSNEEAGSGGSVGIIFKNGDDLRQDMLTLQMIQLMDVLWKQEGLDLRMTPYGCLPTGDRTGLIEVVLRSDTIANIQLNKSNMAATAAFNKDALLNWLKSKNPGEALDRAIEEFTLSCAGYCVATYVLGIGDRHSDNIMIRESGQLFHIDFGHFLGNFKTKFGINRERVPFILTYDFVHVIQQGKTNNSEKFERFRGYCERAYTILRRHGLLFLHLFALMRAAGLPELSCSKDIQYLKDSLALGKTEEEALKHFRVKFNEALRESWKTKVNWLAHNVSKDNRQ
PI3K-δ (PI3K(p1108/p857) (h)), sequence (P27986 whole entry partner, the tested form may be a part): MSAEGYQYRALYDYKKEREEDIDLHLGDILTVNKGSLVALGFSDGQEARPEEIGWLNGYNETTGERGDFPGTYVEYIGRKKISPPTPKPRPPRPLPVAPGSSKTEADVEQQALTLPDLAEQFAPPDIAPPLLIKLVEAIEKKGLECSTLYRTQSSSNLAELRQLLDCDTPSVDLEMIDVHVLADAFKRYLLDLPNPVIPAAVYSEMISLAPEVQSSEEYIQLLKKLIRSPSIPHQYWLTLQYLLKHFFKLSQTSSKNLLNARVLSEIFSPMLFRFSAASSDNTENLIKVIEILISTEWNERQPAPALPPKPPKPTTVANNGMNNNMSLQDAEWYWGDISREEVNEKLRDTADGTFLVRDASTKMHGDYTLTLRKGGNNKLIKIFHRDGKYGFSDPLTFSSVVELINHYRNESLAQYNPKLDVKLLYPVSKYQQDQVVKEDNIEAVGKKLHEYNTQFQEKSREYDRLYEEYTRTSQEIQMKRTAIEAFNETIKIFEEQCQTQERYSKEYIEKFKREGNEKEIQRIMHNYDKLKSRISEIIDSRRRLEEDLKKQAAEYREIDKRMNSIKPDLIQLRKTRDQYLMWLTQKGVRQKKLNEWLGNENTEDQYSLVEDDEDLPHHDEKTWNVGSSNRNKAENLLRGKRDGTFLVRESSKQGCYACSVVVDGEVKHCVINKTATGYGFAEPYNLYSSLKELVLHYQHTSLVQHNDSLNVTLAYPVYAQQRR

inhibition at 0.1 µM [1]	inhibition at 0.1 µM (DNA-PK(h))	Structure (SMILES)
75%	4%	C[C@H](Nc1ncnc2[nH]ccc(=O)c12)c1cc2cccc(-c3cnc(C(F)(F)F)nc3)c2c(=O)n1-c1ccccc1 [Example 385, (S)-4-((1-(1-oxo-2-phenyl-8-(2-(trifluoromethyl)pyrimidin-5-yl)-1,2-dihydroisoquinolin-3-yl)ethyl)amino)pyrido[2,3-d]pyrimidin-5(8H)-one]
85%	16%	C[C@H](Nc1ncnc2[nH]ccc(=O)c12)c1cc2cccc(-c3cnc(C(C)(C)O)nc3)c2c(=O)n1-c1ccccc1 [Example 386, (S)-4-((1-(8-(2-(2-hydroxypropan-2-yl)pyrimidin-5-yl)-1-oxo-2-phenyl-1,2-dihydroisoquinolin-3-yl)ethyl)amino)pyrido[2,3-d]pyrimidin-5(8H)-one]
89%	18%	C[C@H](Nc1ncnc2[nH]ccc(=O)c12)c1c(Cl)c2cccc(S(C)(=O)=O)c2c(=O)n1-c1ccccc1 [Example 390, (S)-4-((1-(4-chloro-8-(methylsulfonyl)-1-oxo-2-phenyl-1,2-dihydroisoquinolin-3-yl)ethyl)amino)pyrido[2,3-d]pyrimidin-5(8H)-one]
84%	17%	C[C@H](Nc1ncnc2[nH]ccc(=O)c12)c1c(Cl)c2cccc(S(=O)(=O)c3ccc(Cl)cc3)c2c(=O)n1-c1ccccc1 [Example 393, (S)-4-((1-(4-chloro-8-((4-chlorophenyl)sulfonyl)-1-oxo-2-phenyl-1,2-dihydroisoquinolin-3-yl)ethyl)amino)pyrido[2,3-d]pyrimidin-5(8H)-one]
94%	34%	CCC[S@@+]([O-])c1cccc2c(Cl)c([C@H](C)Nc3ncnc4[nH]ccc(=O)c34)n(-c3ccccc3)c(=O)c12 [Example 397]
7%	3%	C[C@H](Nc1ncnc2[nH]ccc(=O)c12)c1c(Cl)c2cccc(Sc3ccc(F)cc3)c2c(=O)n1-c1ccccc1 [Example 398, (S)-4-((1-(4-chloro-8-((4-fluorophenyl)thio)-1-oxo-2-phenyl-1,2-dihydroisoquinolin-3-yl)ethyl)amino)pyrido[2,3-d]pyrimidin-5(8H)-one]
92%	23%	C[C@H](Nc1ncnc2[nH]ccc(=O)c12)c1c(Cl)c2cccc(S(=O)(=O)c3ccc(F)cc3)c2c(=O)n1-c1ccccc1 [Example 399, (S)-4-((1-(4-chloro-8-((4-fluorophenyl)sulfonyl)-1-oxo-2-phenyl-1,2-dihydroisoquinolin-3-yl)ethyl)amino)pyrido[2,3-d]pyrimidin-5(8H)-one]
16%	-2%	C[C@H](Nc1ncnc2[nH]ccc(=O)c12)c1c(Cl)c2cccc(Sc3nc[nH]n3)c2c(=O)n1-c1ccccc1 [Example 400, (S)-4-((1-(8-((1H-1,2,4-triazol-3-yl)thio)-4-chloro-1-oxo-2-phenyl-1,2-dihydroisoquinolin-3-yl)ethyl)amino)pyrido[2,3-d]pyrimidin-5(8H)-one]
71%	16%	C[C@H](Nc1ncnc2[nH]ccc(=O)c12)c1c(Cl)c2cccc(-c3cnc(Cl)nc3)c2c(=O)n1-c1ccccc1 [Example 402, (S)-4-((1-(4-chloro-8-(2-chloropyrimidin-5-yl)-1-oxo-2-phenyl-1,2-dihydroisoquinolin-3-yl)ethyl)amino)pyrido[2,3-d]pyrimidin-5(8H)-one]
80%	46%	CC(=O)c1ncc(-c2cccc3c(Cl)c([C@H](C)Nc4ncnc5[nH]ccc(=O)c45)n(-c4ccccc4)c(=O)c23)cn1 [Example 403, (S)-4-((1-(8-(2-acetylpyrimidin-5-yl)-4-chloro-1-oxo-2-phenyl-1,2-dihydroisoquinolin-3-yl)ethyl)amino)pyrido[2,3-d]pyrimidin-5(8H)-one]
69%	74%	COC(C)(C)c1ncc(-c2cccc3c(Cl)c([C@H](C)Nc4ncnc5[nH]ccc(=O)c45)n(-c4ccccc4)c(=O)c23)cn1 [Example 405, (S)-4-((1-(4-chloro-8-(2-(2-methoxypropan-2-yl)pyrimidin-5-yl)-1-oxo-2-phenyl-1,2-dihydroisoquinolin-3-yl)ethyl)amino)pyrido[2,3-d]pyrimidin-5(8H)-one]
67%	70%	C[C@H](Nc1ncnc2[nH]ccc(=O)c12)c1c(Cl)c2cccc(-c3cnc(S(C)(=N)=O)nc3)c2c(=O)n1-c1ccccc1 (stereo partly drawn) [Example 407, 4-(((1S)-1-(4-chloro-8-(2-(S-methylsulfonimidoyl)pyrimidin-5-yl)-1-oxo-2-phenyl-1,2-dihydroisoquinolin-3-yl)ethyl)amino)pyrido[2,3-d]pyrimidin-5(8H)-one]
71%	28%	CCC[S@@](=N)(=O)c1cccc2c(Cl)c([C@H](C)Nc3ncnc4[nH]ccc(=O)c34)n(-c3ccccc3)c(=O)c12 [Example 408, 4-(((S)-1-(4-chloro-1-oxo-2-phenyl-8-((R)-propylsulfonimidoyl)-1,2-dihydroisoquinolin-3-yl)ethyl)amino)pyrido[2,3-d]pyrimidin-5(8H)-one]

Second part, the compound before the results:

Structure (SMILES)	inhibition at 0.1 µM [1]	inhibition at 0.1 µM (DNA-PK(h))
Cc1ccc(-c2cccc3c(Cl)c([C@H](C)Nc4ncnc5[nH]ccc(=O)c45)n(-c4ccccc4)c(=O)c23)s1 [Example 387, (S)-4-((1-(4-chloro-8-(5-methylthiophen-2-yl)-1-oxo-2-phenyl-1,2-dihydroisoquinolin-3-yl)ethyl)amino)pyrido[2,3-d]pyrimidin-5(8H)-one]	72%	58%
C[C@H](Nc1ncnc2[nH]ccc(=O)c12)c1c(Cl)c2cccc(-c3cccs3)c2c(=O)n1-c1ccccc1 [Example 388, (S)-4-((1-(4-chloro-1-oxo-2-phenyl-8-(thiophen-2-yl)-1,2-dihydroisoquinolin-3-yl)ethyl)amino)pyrido[2,3-d]pyrimidin-5(8H)-one]	80%	68%
C[C@H](Nc1ncnc2[nH]ccc(=O)c12)c1c(Cl)c2cccc(C(F)(F)F)c2c(=O)n1-c1ccccc1 [Example 389, (S)-4-((1-(4-chloro-1-oxo-2-phenyl-8-(trifluoromethyl)-1,2-dihydroisoquinolin-3-yl)ethyl)amino)pyrido[2,3-d]pyrimidin-5(8H)-one]	90%	32%
C[C@H](Nc1ncnc2[nH]ccc(=O)c12)c1c(Cl)c2cccc(S(=O)(=O)c3ccncc3)c2c(=O)n1-c1ccccc1 [Example 391, (S)-4-((1-(4-chloro-1-oxo-2-phenyl-8-(pyridin-4-ylsulfonyl)-1,2-dihydroisoquinolin-3-yl)ethyl)amino)pyrido[2,3-d]pyrimidin-5(8H)-one]	98%	22%
C[C@H](Nc1ncnc2[nH]ccc(=O)c12)c1c(Cl)c2cccc(-c3cnc(S(C)(=O)=O)nc3)c2c(=O)n1-c1ccccc1 [Example 392, (S)-4-((1-(4-chloro-8-(2-(methylsulfonyl)pyrimidin-5-yl)-1-oxo-2-phenyl-1,2-dihydroisoquinolin-3-yl)ethyl)amino)pyrido[2,3-d]pyrimidin-5(8H)-one]	94%	45%
C[C@H](Nc1ncnc2[nH]ccc(=O)c12)c1c(Cl)c2cccc([S@+]([O-])c3ccc(OC(F)(F)F)cc3)c2c(=O)n1-c1ccccc1 [Example 395, 4-(((S)-1-(4-chloro-1-oxo-2-phenyl-8-(((R)-4-(trifluoromethoxy)phenyl)sulfinyl)-1,2-dihydroisoquinolin-3-yl)ethyl)amino)pyrido[2,3-d]pyrimidin-5(8H)-one]	12%	15%
CCC[S@+]([O-])c1cccc2c(Cl)c([C@H](C)Nc3ncnc4[nH]ccc(=O)c34)n(-c3ccccc3)c(=O)c12 [Example 396, 4-(((S)-1-(4-chloro-1-oxo-2-phenyl-8-((S)-propylsulfinyl)-1,2-dihydroisoquinolin-3-yl)ethyl)amino)pyrido[2,3-d]pyrimidin-5(8H)-one]	29%	46%
C[C@H](Nc1ncnc2[nH]ccc(=O)c12)c1c(Cl)c2cccc(S(=O)(=O)c3nc[nH]n3)c2c(=O)n1-c1ccccc1 [Example 401, (S)-4-((1-(8-((1H-1,2,4-triazol-3-yl)sulfonyl)-4-chloro-1-oxo-2-phenyl-1,2-dihydroisoquinolin-3-yl)ethyl)amino)pyrido[2,3-d]pyrimidin-5(8H)-one]	42%	24%
CCOC(C)(C)c1ncc(-c2cccc3c(Cl)c([C@H](C)Nc4ncnc5[nH]ccc(=O)c45)n(-c4ccccc4)c(=O)c23)cn1 [Example 404, (S)-4-((1-(4-chloro-8-(2-(2-ethoxypropan-2-yl)pyrimidin-5-yl)-1-oxo-2-phenyl-1,2-dihydroisoquinolin-3-yl)ethyl)amino)pyrido[2,3-d]pyrimidin-5(8H)-one]	70%	78%
CCCOC(C)(C)c1ncc(-c2cccc3c(Cl)c([C@H](C)Nc4ncnc5[nH]ccc(=O)c45)n(-c4ccccc4)c(=O)c23)cn1 [Example 406, (S)-4-((1-(4-chloro-1-oxo-2-phenyl-8-(2-(2-propoxypropan-2-yl)pyrimidin-5-yl)-1,2-dihydroisoquinolin-3-yl)ethyl)amino)pyrido[2,3-d]pyrimidin-5(8H)-one]	72%	71%
